{"source": "patent US4273866A", "about": "“Ligand analog-irreversible enzyme inhibitor conjugates and methods for use” (priority 1979, dated 1981)", "key": {"acetylcholinesterase": {"test_system": "acetylcholinesterase", "assay": "Digoxin in serum assay with Compound I", "format": "biochemical, E. electricus", "experimental": "(§1) A stock solution of Compound I (4.6×10^-3 molar in methanol) is diluted 200-fold with pH 7.0, 0.1 molar phosphate buffer containing 0.1% gelatin. Digoxin antibody is diluted in phosphate-gelatin buffers as indicated in Table I. Fifty microliters of phosphate-gelatin buffer, pH 7.0, containing the indicated concentration of antibody is placed in sample cups of a bichromatic spectrophotometer (model ABA-100® sold by Abbott Laboratories). To each of these 50 μl is added 1 μl of Compound I working solution making the final concentration 4.5×10^-7 molar. The antibody and Compound I (inhibitor) are allowed to incubate for 10-15 minutes at room temperature. Each sample receives 1 .parallel.l of working enzyme solution (9.5×10^-9 molar of E. electricus acetylcholinesterase in pH 7.0 phosphate-gelatin buffer). The final enzyme concentration is 1.9×10^-10 molar. The sample is diluted 1/26 with assay buffer containing acetylthiocholine, as substrate, 5×10^-4 molar and 5,5'-dithiobis-(2 -nitrobenzoic acid) (DTNB), 1.6×10^-4 molar in pH 7.0 phosphate-gelatin buffer. The change in absorbance with time is measured after 5 minutes in the bichromatic analyzer equipped with a 415/550 nm filter at 30° C. The results are as follows:\nNormal human serum containing digoxin concentrations listed in the table below are assayed by the procedure set out above.\nN-Ethylmaleimide is used to block background sulfhydryl groups in human serum.\nThus, 1 μl of concentrated digoxin antibody in pH 7.0 phosphate-gelatin buffer containing 50 mM of N-methylorphenadrine is added to 50 μl of each serum standard then N-ethylmaleimide is added with mixing to each serum standard to make a working concentration of 1.6 mM. To the serum is also added 1 μl of a solution containing Compound I in pH 7.0, 0.1 molar phosphate-gelatin buffer. The final antibody concentration is 8.0×10^-7 molar and the final concentration of Compound I is 4.5×10^-7. These solutions are allowed to incubate for 12 minutes at which time acetylcholinesterase is added as before. After 26 minutes, the bichromatic spectrophotometer is started and a sample from each cup is diluted 26-fold with assay buffer containing 1.6×10^-5 molar DTNB, 5×10^-4 molar acetyl-β-methylthiocholine iodide, and 1 mM N-methyl-orphenadrine in pH 7.0, 0.1 molar phosphate-gelatin buffer. The final enzyme concentration is about 2×10^-11 molar and the cuvette temperature is 30° C. The change in absorbance after 5 minutes is as follows: […]"}, "[1]": {"target": "T1, E. electricus acetylcholinesterase (Electrophorus electricus, UniProt O42275)", "T1 sequence (O42275 24-633)": "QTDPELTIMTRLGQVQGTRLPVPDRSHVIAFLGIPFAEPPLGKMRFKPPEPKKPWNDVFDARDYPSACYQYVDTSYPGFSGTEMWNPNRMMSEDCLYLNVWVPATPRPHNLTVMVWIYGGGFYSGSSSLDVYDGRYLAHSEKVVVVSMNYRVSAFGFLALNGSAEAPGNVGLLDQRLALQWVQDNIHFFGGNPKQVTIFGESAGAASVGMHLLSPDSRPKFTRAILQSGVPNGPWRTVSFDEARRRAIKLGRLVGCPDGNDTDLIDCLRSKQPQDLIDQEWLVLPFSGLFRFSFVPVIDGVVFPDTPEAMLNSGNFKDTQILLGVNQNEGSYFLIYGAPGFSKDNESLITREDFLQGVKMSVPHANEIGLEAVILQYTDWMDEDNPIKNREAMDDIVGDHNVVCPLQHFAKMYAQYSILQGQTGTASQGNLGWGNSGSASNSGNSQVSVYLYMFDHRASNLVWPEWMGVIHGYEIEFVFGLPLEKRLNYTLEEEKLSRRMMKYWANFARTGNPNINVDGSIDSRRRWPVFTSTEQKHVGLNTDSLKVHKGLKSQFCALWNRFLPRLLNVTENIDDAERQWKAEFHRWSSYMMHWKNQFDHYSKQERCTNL", "assay": "Antibody modulation of Compound I inhibitory activity (residual acetylcholinesterase activity)", "format": "biochemical", "settings": "Compound I 4.5 × 10^-7 M", "experimental": "as §1, with “C.” for “C. The results are as follows:”"}, "[2]": {"target": "T1, E. electricus acetylcholinesterase", "assay": "Residual enzyme activity with Compound I, antibody and digoxin in buffer", "format": "biochemical", "settings": "antibody 4.5×10^-7 molar, after 21 minutes", "experimental": "as §1\n(§2) The above experiment is repeated except digoxin at a concentration of 2.5×10^-5 molar is added to the sample cups. […] Fifty microliters of phosphate-gelatin buffer is added to a sample cup. The buffer solution either contains 2.5×10^-5 molar digoxin or is a control. To the sample cup is added a final concentration of 9×10^-7 molar digoxin antibody and 4.5×10^-7 molar Compound I. These solutions are allowed to incubate for 15 minutes and then enzyme is added and assayed according to the previous procedure. The results are as follows:\nUsing the above procedures with the exception that the antibody final concentration in the sample is 4.5×10^-7 molar, various phosphate-gelatin buffer solutions are prepared with the indicated digoxin concentration. Each of these solutions are analyzed by adding antibody and Compound I to the solution as in the previous procedure, allowing a 2.5 minute incubation period to elapse and assaying for the residual enzyme activity after 21 minutes."}, "[3]": {"target": "T1, E. electricus acetylcholinesterase", "assay": "Specific modulation of Compound I inhibition by digoxin antibody and digoxin", "format": "biochemical", "experimental": "as §1\nas §2, with “procedure.” for “procedure. The results are as follows:”"}, "[4]": {"test_system": "human serum cholinesterase", "assay": "Inhibition of human serum cholinesterase", "format": "biochemical", "settings": "1 mM", "description": "(§3) N,N,N-Trimethyl-2-(o-methyl-α-phenylbenzyloxy) ethylammonium methylsulfate(N-methylorphenadrine) prepared by reacting N,N-dimethyl-2-(o-methyl-α-phenylbenzyloxy) ethylamine(orphenadrine)with dimethylsulfate."}, "[5]": {"target": "cholinesterase from E.electricus (Electrophorus electricus, UniProt O42275)", "sequence (O42275 24-633)": "as above", "assay": "Inhibition of cholinesterase from E.electricus", "format": "biochemical", "settings": "1 mM", "description": "as §3"}}, "data": [{"smiles": "CCOP(=O)(OCCCCCNC(=O)CCCCCNC(=O)OC1CCC2(C)C(CCC3C2CC(O)C2(C)C(C4=CC(=O)OC4)CCC32O)C1)Oc1ccc2ccc[n+](C)c2c1", "note": "(stereo not shown) [Compound I]", "values": [{"measurement": "change in absorbance after 5 minutes", "setting": "acetylcholinesterase; digoxin in serum 0.1 μM, antibody 8.0×10^-7 molar, Compound I 4.5×10^-7", "value": 0.096, "unit": "Ad/5 Min."}, {"measurement": "change in absorbance after 5 minutes", "setting": "acetylcholinesterase; digoxin in serum 0.13 μM", "value": 0.089, "unit": "Ad/5 Min."}, {"measurement": "change in absorbance after 5 minutes", "setting": "acetylcholinesterase; digoxin in serum 0.17 μM", "value": 0.083, "unit": "Ad/5 Min."}, {"measurement": "change in absorbance after 5 minutes", "setting": "acetylcholinesterase; digoxin in serum 0.26 μM", "value": 0.077, "unit": "Ad/5 Min."}, {"measurement": "change in absorbance after 5 minutes", "setting": "acetylcholinesterase; digoxin in serum 0.34 μM", "value": 0.073, "unit": "Ad/5 Min."}, {"measurement": "change in absorbance after 5 minutes", "setting": "acetylcholinesterase; digoxin in serum 0.51 μM", "value": 0.063, "unit": "Ad/5 Min."}, {"measurement": "change in absorbance after 5 minutes", "setting": "acetylcholinesterase; digoxin in serum 0.64 μM", "value": 0.060, "unit": "Ad/5 Min."}, {"measurement": "change in absorbance after 5 minutes", "setting": "acetylcholinesterase; digoxin in serum 0.85 μM", "value": 0.047, "unit": "Ad/5 Min."}, {"measurement": "change in absorbance after 5 minutes", "setting": "acetylcholinesterase; digoxin in serum 1.30 μM", "value": 0.035, "unit": "Ad/5 Min."}, {"measurement": "change in absorbance with time", "setting": "[1]; antibody 9 × 10^-7 M, enzyme 1.9 × 10^-10 M, 10' incubation", "value": 0.161, "unit": "Ad/5 min."}, {"measurement": "change in absorbance with time", "setting": "[1]; antibody 9 × 10^-7 M, enzyme 1.9 × 10^-10 M, 21' incubation", "value": 0.137, "unit": "Ad/5 min."}, {"measurement": "change in absorbance with time", "setting": "[1]; antibody 9 × 10^-7 M, enzyme 1.9 × 10^-10 M, 43' incubation", "value": 0.107, "unit": "Ad/5 min."}, {"measurement": "change in absorbance with time", "setting": "[1]; antibody 9 × 10^-8 M, enzyme 1.9 × 10^-10 M, 10' incubation", "value": 0.089, "unit": "Ad/5 min."}, {"measurement": "change in absorbance with time", "setting": "[1]; antibody 9 × 10^-8 M, enzyme 1.9 × 10^-10 M, 21' incubation", "value": 0.027, "unit": "Ad/5 min."}, {"measurement": "change in absorbance with time", "setting": "[1]; antibody 9 × 10^-8 M, enzyme 1.9 × 10^-10 M, 43' incubation", "value": 0.005, "unit": "Ad/5 min."}, {"measurement": "change in absorbance with time", "setting": "[1]; no antibody, enzyme 1.9 × 10^-10 M (enzyme alone 0.220), 10' incubation", "value": 0.045, "unit": "Ad/5 min."}, {"measurement": "change in absorbance with time", "setting": "[1]; no antibody, enzyme 1.9 × 10^-10 M (enzyme alone 0.221), 21' incubation", "value": 0.015, "unit": "Ad/5 min."}, {"measurement": "change in absorbance with time", "setting": "[1]; no antibody, enzyme 1.9 × 10^-10 M (enzyme alone 0.222), 43' incubation", "value": 0.003, "unit": "Ad/5 min."}, {"measurement": "% Activity of Enzyme", "setting": "[2]; digoxin 0.062 μM", "value": 65, "unit": "%"}, {"measurement": "% Activity of Enzyme", "setting": "[2]; digoxin 0.125 μM", "value": 65, "unit": "%"}, {"measurement": "% Activity of Enzyme", "setting": "[2]; digoxin 0.25 μM", "value": 62, "unit": "%"}, {"measurement": "% Activity of Enzyme", "setting": "[2]; digoxin 0.5 μM", "value": 57, "unit": "%"}, {"measurement": "% Activity of Enzyme", "setting": "[2]; digoxin 1.0 μM", "value": 36, "unit": "%"}, {"measurement": "Ad/5 min. after enzyme-inhibitor incubation time", "setting": "[3]; Enzyme + Compound I + Antibody (9×10^-7 molar), 0.3'", "value": 0.160, "unit": "Ad/5 min."}, {"measurement": "Ad/5 min. after enzyme-inhibitor incubation time", "setting": "[3]; Enzyme + Compound I + Antibody (9×10^-7 molar), 11'", "value": 0.129, "unit": "Ad/5 min."}, {"measurement": "Ad/5 min. after enzyme-inhibitor incubation time", "setting": "[3]; Enzyme + Compound I + Antibody (9×10^-7 molar), 19'", "value": 0.115, "unit": "Ad/5 min."}, {"measurement": "Ad/5 min. after enzyme-inhibitor incubation time", "setting": "[3]; Enzyme + Compound I + Antibody + Digoxin (2.5×10^-5 molar), 0.3'", "value": 0.160, "unit": "Ad/5 min."}, {"measurement": "Ad/5 min. after enzyme-inhibitor incubation time", "setting": "[3]; Enzyme + Compound I + Antibody + Digoxin (2.5×10^-5 molar), 11'", "value": 0.068, "unit": "Ad/5 min."}, {"measurement": "Ad/5 min. after enzyme-inhibitor incubation time", "setting": "[3]; Enzyme + Compound I + Antibody + Digoxin (2.5×10^-5 molar), 19'", "value": 0.038, "unit": "Ad/5 min."}, {"measurement": "Ad/5 min. after enzyme-inhibitor incubation time", "setting": "[3]; Enzyme + Compound I, 0.3' (enzyme only 0.174)", "value": 0.162, "unit": "Ad/5 min."}, {"measurement": "Ad/5 min. after enzyme-inhibitor incubation time", "setting": "[3]; Enzyme + Compound I, 11' (enzyme only 0.169)", "value": 0.037, "unit": "Ad/5 min."}, {"measurement": "Ad/5 min. after enzyme-inhibitor incubation time", "setting": "[3]; Enzyme + Compound I, 19' (enzyme only 0.167)", "value": 0.013, "unit": "Ad/5 min."}]}, {"smiles": "Cc1ccccc1C(OCC[N+](C)(C)C)c1ccccc1", "note": "(stereo not drawn) [N-methylorphenadrine, N,N,N-Trimethyl-2-(o-methyl-α-phenylbenzyloxy) ethylammonium methylsulfate]", "values": [{"measurement": "inhibition of human serum cholinesterase", "setting": "[4]", "value": "greater than 99%"}, {"measurement": "inhibition at 1000 µM", "setting": "[5]", "value": 25, "unit": "%"}]}]}
